Assay results as given in a melting point compilation (Tetko et al.; mined from patent text by program, amines drawn as free bases though some values may be those of a salt).

Structure (SMILES) | melting point
CCC1C(=O)Nc2ccc(Br)cc21 (stereo not given) | 118 to 120 °C
O=C1CCC(C(=O)Nc2ccc(Cl)cc2C(=O)c2ccccc2Cl)O1 (stereo not given) | 170 to 173 °C
Cc1cc(C(=O)OC(C)(C)C)c(NC(=O)Nc2ccc(Oc3ccccc3)cc2)s1 | 130 to 132 °C
O=C(Nc1cccc(NC(=O)C(F)(F)F)c1)Nc1ccc(Cl)c(Cl)c1 | 221 to 223 °C
CCn1ncnc1COc1nc2c(cc1C(C)(C)C)nnn2-c1cc(F)ccc1F | 148 to 150 °C
Cc1ccccc1-n1c(=O)nc(N(C)C)n(C)c1=O | 159 to 162 °C
O=C(O)c1ccc2ccccn2c1=O | 235 to 240 °C
Cc1nn(C)c(=O)n1-c1ccc([N+](=O)[O-])cc1 | 153 °C
O=C1OC(=O)c2cscc21 | 147 to 149 °C
COc1ccc(-c2ccc(C(N)=O)cc2)cc1-c1cccc([N+](=O)[O-])c1 | 201 to 205 °C
O=C(Nc1ccccc1)c1ccccc1Cl | 96.4 to 98.3 °C
CC(C)N1CCN(c2ccc(OCCCCCCC(O)(Cn3ccnc3)c3ccc(Cl)cc3Cl)cc2)CC1 (stereo not given) | 143 to 145 °C
Cn1c(C(=O)Nc2cc3c(cn2)[nH]c2ccccc23)cc2ccccc21 | 300 to 301 °C
O=c1c(CCCl)n[nH]c2ccccc12 | 201 to 203 °C
O=c1[nH]c2ccc(S(=O)(=O)Nc3ccc(Cl)cc3Cl)cc2c(=O)o1 | 215 °C
CCc1cnc(N2CCC(c3nc4cc(-c5ccc(-n6cnnn6)cc5F)ccc4o3)CC2)nc1 | 188 to 192 °C
COc1ccc(CNc2ncnc3c2ncn3C2OC(CNC(C)=O)C(O)C2O)cc1 (stereo not given) | 121 to 122 °C
Cc1nc[nH]c1CSCCNC(N)=C[N+](=O)[O-] | 193 to 195 °C
N#CCC(=O)c1ccccc1Cl | 56 to 58 °C
Cc1ccc(C(=S)C2CCC3C4CCc5cc(C(=O)O)ccc5C4CCC23C)cc1 (stereo not given) | 255 to 257 °C
O=C(CCc1ccc2ccccc2n1)NO | 159 to 160 °C
CCCCCCCCCCOC(C)c1ccc(C(=O)O)cc1 (single isomer, unassigned; (+)) | 56.6 to 57.5 °C
CCC(C)(CC)c1nnc(NC(=S)c2c(OC)cccc2OC)s1 | 202 to 204 °C
CC(C)(C)[Si](C)(C)OC1C(=O)N(S(=O)(=O)c2ccc(N3CCCCCC3)cc2)CC1O (stereo not given) | 121 °C

Structure (SMILES) | melting point
COc1nc2cc([N+](=O)[O-])c(C)c(C(=O)N(C)CC(=O)OC(C)(C)C)c2nc1OC | 102 to 105 °C
COc1ccc(C(=O)O)cc1NC(=O)c1cc(C(C)(C)C)c(O)c(C(C)(C)C)c1 | 259 to 261 °C
Cc1c(C)c(NC(=O)CC(C)(C)C)c2c(c1C)C(c1ccc(C(C)C)cc1)C(C)(C)O2 (stereo not given) | 152 to 153 °C
CCCCn1c(=O)cc(NN)n(Cc2ccc(OC)cc2)c1=O | 167 to 170 °C
COC(=O)CCc1cc(C(=O)c2cccc(C#N)c2)ccc1OCCCCC=Cc1ccc(OC)cc1 | 65 to 67 °C
C#CCN(c1ccc(C(=O)NC(CCC(=O)NC(CCC(=O)O)C(=O)O)C(=O)O)cc1)C1CCc2cc3nc(CO)[nH]c(=O)c3cc21 (stereo not given) | 172 °C
O=C(O)C=Cc1ccc(NC(=O)CCCCCNC(=O)OCc2ccccc2)cc1 | 142 to 144 °C
N#CCOC(=O)c1ccc([N+](=O)[O-])cc1 | 80 to 82 °C
O=[N+]([O-])c1ccc2c(c1)nc(/C=C/c1ccccc1)n2-c1ccccn1 | 200 to 202 °C
CN(C)S(=O)(=O)c1c(S(N)(=O)=O)c(C(C)(C)C)cn1C | 98 to 101 °C
O=C(Cn1sc2ccccc2c1=O)N1CCN(C(=O)Oc2ccc([N+](=O)[O-])cc2)CC1 | 114 to 118 °C
CCCn1c(=O)c(C(=O)OCC)c(N)c2cccnc21 | 165 to 168 °C
CN(C)c1nn2nnnc2c2c1CCCC2 | 239 to 240 °C
C(=C\c1nc(COc2ccc(CCCn3ccnc3)cc2)cs1)/c1ccccc1 | 129 to 130 °C
Cc1cc2nc(NC(=O)C(C)(C)C)nc(Cl)c2[nH]1 | 162 to 163 °C
COc1ccc(CNc2cc(C(N)=O)c([N+](=O)[O-])cc2[N+](=O)[O-])cc1Cl | 180 to 182 °C
O=C(NCC12CC3CC(CC(C3)C1)C2)c1cc(N2CC2)ccc1Cl | 154 to 155 °C
CC(C)(C)NCC(O)COc1ccccc1C(=O)Nc1cccc2c1CC(=O)N2 (stereo not given) | 160 °C
CCc1cc(NC2=NCCN2C(C)=O)n(C)n1 | 160 to 162 °C
COc1cc(N2C(=S)N3CCCCC3C2O)c(F)cc1Cl (stereo not given) | 208 to 215 °C
CCOC(=O)C(C)=NNc1ccc(Cl)cc1Cl | 118 to 120 °C
O=C1OC(O)c2ccc(Cl)cc21 (stereo not given) | 108 to 109 °C
CC1SC(=O)NN=C1c1ccc2c(c1)C(=NNC(=O)c1ccccn1)C(=O)N2 (stereo not given) | > 300 °C
COC(=O)Cc1cc(Br)c(S)c(Br)c1 | 63.5 to 65 °C

Structure (SMILES) | melting point
COc1cc(Nc2c(C#N)cnc3cc(-c4ccccc4CN4CCOCC4)ccc23)c(Cl)cc1Cl | 107 to 109 °C
COC(=O)C(O)(c1cccc(C(F)(F)F)c1)c1cccc(C(F)(F)F)c1 | 69 to 70 °C
CC(C)NC(=O)C(C)(F)c1ccc(OS(=O)(=O)C(F)(F)F)cc1 (stereo not given) | 90 to 92 °C
CC(C)n1c(/C=C/COc2ccc(C(=O)C(=O)O)cc2)c(-c2ccc(F)cc2)c2ccccc21 | 151 to 152 °C
CCCCCCCN(CCc1ccc(OC(C)(C)C(=O)O)cc1)C(=O)Nc1ccc(OC)cc1OC | 95 to 96 °C
COC(=O)c1ccc(CC(C)NCC(O)c2ccc(O)c(CO)c2)cc1OC (stereo not given) | 64 to 71 °C
CCCOCCOC(=O)C1=C(C)NC(C)=C(S(=O)(=O)N(C)CCOC)C1c1cccc([N+](=O)[O-])c1 (stereo not given) | 67 to 70 °C
NC1CC(c2c[nH]c3ccc(CC4COC(=O)N4)cc23)C1 (stereo not given) | 95 to 100 °C
C=C1N=C(c2ccccc2F)c2cc(Cl)ccc2C(=O)C1N(C)C (stereo not given) | 224 to 226 °C
CC1(C)CN(c2ncc(C(=O)N(c3cccc(C(F)(F)F)c3)C3CCCC3)c(N)n2)C(=O)N1 | 135 to 139 °C
Cc1nc(N2CCN(Cc3ccccc3)C2=O)sc1C(=O)O | 248 to 249 °C
O=C1c2ccccc2C(=O)N1CCCOc1ccc(O)cc1 | 135 to 137 °C
Nc1ncnc2c1c(C#CCO)nn2Cc1oc2ccccc2c(=O)c1-c1ccccc1 | 171 to 173 °C
CCCCCCCCCCCCCCOC(=O)CCC(=O)O | 48 to 49 °C
COCOc1ccc(C(C(c2ccccc2)c2ccc(F)cc2)C(F)(F)F)cc1 (stereo not given) | 85 to 88 °C
Cn1c(=O)c2c(ncn2CC(O)Cc2noc(CCN3CCCCC3)n2)n(C)c1=O (stereo not given) | 110 to 111 °C
Cn1cnc(COc2nn3c(-c4ccccc4)nnc3cc2-c2cccs2)n1 | 237 to 239 °C
c1ccc(CN2CCC(Oc3cnccn3)(c3ccccc3)CC2)cc1 | 107 to 108 °C
O=C(O)c1cc(=O)c2cccc(COc3ccc(OCc4ccc5ccccc5n4)cc3)c2o1 | 221 to 224 °C
COc1ccc(C(=O)c2ccccn2)c(Cl)c1Cl | 104 to 107 °C
Cc1cc(C(=O)NCCO)ncc1C(c1cc(F)ccc1F)S(=O)(=O)c1ccc(F)cc1 (stereo not given) | 153 to 154 °C
COCC1CN(c2ccc(C3CCN(Cc4ccccc4)CC3)cc2)C(=O)O1 (racemic) | 175 to 177 °C
